Assay results as given in patent US11883447B2, “Methods and probiotic compositions for the treatment of metabolic diseases and disorders” (Research Development Foundation, priority 2019, dated 2024).

How the values were obtained:
[1] = test system: Lactobacillus Reuteri; assay: Bacterial growth in media supplemented with polyamines; format: cell-based; conditions: in vitro, various concentrations in growth media
Description: (§1) The inventors next investigated whether culturing several bacteria with beneficial metabolic effects can be affected by presence of polyamines in the growth media. […] To further address whether the general growth of bacteria present in fresh fecal samples is affected, we inoculated fresh mouse fecal content in a growth media supplemented with various concentrations of spermine or spermidine.

[2] = test system: Parabacteroides goldsteinii; assay: as above; format: cell-based; conditions: in vitro, various concentrations in growth media
Description: as §1

[3] = test system: Lactobacillus Gaseri; assay: as above; format: cell-based; conditions: in vitro, various concentrations in growth media
Description: as §1

[4] = test system: bacterial mix from mouse fecal samples; assay: Growth of bacterial mix from fresh mouse fecal content in media with polyamines; format: cell-based; conditions: in vitro, various concentrations; exponential growth phase
Description: as §1

[5] = test system: ovariectomized mice; assay: Insulin tolerance test in ovariectomized mice gavaged with bacteria; format: in vivo; conditions: 0.5 U/kg insulin, glycemia over 2 h
Protocol: (§2) Ovariectomy: Mice were anesthetised with Xylazin/Ketamin (injection of 120 μl of a mixture of 120 mg/kg ketamine and 16 mg/kg xylazine) and shaved below the ribs on the back side. Betadine was applied to the area for appropriate disinfection. After a 1-2 cm incision through the skin and the muscle layer just below the ribs, the ovary was localized, the fallopian tube ligated with dissolving suture and the ovary removed. The muscle layer was sutured with dissolving suture, the wound closed with staples and disinfected. The same procedure was performed on the other side. A dose of Tamgesic was administered 4 hours after the surgery, and the staples were removed 7 days after the surgery under isoflurane anaesthesia. The sham-operated animals underwent the same procedure, without ligating the fallopian tube and the ovary excision.
(§3) Single microbe transplantation: Lactobacillus Gasseri (DSM 20604) and Parabacteroides Goldsteinii (DSM 19948) were purchased from DSMZ. Lactobacillus reuteri (PTA-6475) and Akkermansia Muciniphila (BAA835) was purchased from ATCC. […]
(§4) Metabolic Experiments: Oral glucose tolerance tests (OGTT) were performed after 10 hr overnight fasting by oral gavage of glucose bolus ([…] body weight). […] Insulin level during the OGTT was measured with the Mouse Insulin ELISA kit (ref. 10-1247-01, Mercodia), following the manufacturer's instructions.

[6] = test system: ovariectomized mice; assay: Oral glucose tolerance test (OGTT) in ovariectomized mice gavaged with bacteria; format: in vivo; conditions: oral gavage every second day
Protocol: as §2, §3, §4

Compound	Growth of Lactobacillus Reuteri [1]	Growth of Parabacteroides goldsteinii [2]	Growth of Lactobacillus Gaseri [3]	Optical density of fecal bacterial mix [4]	Insulin sensitivity (insulin tolerance test) [5]	Oral glucose tolerance [6]
NCCCNCCCCNCCCN [spermine, N, N′-bis (3-aminopropyl)-1,4-butane diamine]	increased the growth	increased the growth	increased the growth	increased the optical density during the exponential growth phase	–	–
Lactobacillus Reuteri	–	–	–	–	improved	improved
NCCCCNCCCN [spermidine]	increased the growth	increased the growth	increased the growth	increased the optical density during the exponential growth phase	–	–
